Test results published in PMC6151762, “Halogenated 1-Hydroxynaphthalene-2-Carboxanilides Affecting Photosynthetic Electron Transport in Photosystem II” (Molecules : A Journal of Synthetic Chemistry and Natural …, 2017).
Where “and” joins values, the source holds several entries; their conditions need not be identical. Identical values can stand only once. Like-named read-outs stand apart in the source and are kept apart here.

Tests used:
[1] = test system: photosynthetic electron transport (PET) in spinach chloroplasts; design: method as in Gonec et al. [11]; details: compounds 1-7 published earlier, ref Gonec et al. [11], read-out: PET Inhibition IC50; cited from earlier work
[2] = test system: photosynthetic electron transport (PET) in spinach chloroplasts; assay: Inhibition of photosynthetic electron transport (PET) in spinach chloroplasts (DCPIP photoreduction); type: biochemical, Spinacia oleracea L.; details: chlorophyll 30 mg/L
Procedure: Chloroplasts were prepared from spinach (Spinacia oleracea L.) according to Masarovicova and Kralova. The inhibition of photosynthetic electron transport (PET) in spinach chloroplasts was determined spectrophotometrically (Genesys 6, Thermo Scientific, USA), using an artificial electron acceptor 2,6-dichlorophenol-indophenol (DCIPP) according to Kralova et al., and the rate of photosynthetic electron transport was monitored as photoreduction of DCPIP. The measurements were carried out in phosphate buffer (0.02 M, pH 7.2) containing sucrose (0.4 M), MgCl2 (0.005 M) and NaCl (0.015 M). The chlorophyll content was 30 mg/L in these experiments, and the samples were irradiated (~100 W/m^2 with 10 cm distance) with a halogen lamp (250 W) using a 4-cm water filter to prevent warming of the samples (suspension temperature 22 °C). The studied compounds were dissolved in DMSO due to their limited water solubility. […] The inhibitory efficiency of the studied compounds was expressed by IC50 values, i.e., by molar concentration of the compounds causing a 50% decrease in the […] relative to the untreated control.

[3] = Aqueous solubility (qualitative); type: physicochemical; details: compared with 2,5-, 2,6-, 3,4- and 3,5-disubstituted derivatives
[4] = test system: aromatic amino acids (AAA) in photosynthetic proteins situated mainly in PS II; assay: Fluorescence of aromatic amino acids in spinach chloroplasts; type: biochemical, Spinacia oleracea L.; details: with increasing concentration (c = 0-47.2 μM); λex = 275 nm; chlorophyll 10 mg/L
Procedure: (§1) The fluorescence emission spectra of chlorophyll a (Chla) and aromatic amino acids in spinach chloroplasts were recorded on fluorescence spectrophotometer F-2000 (Hitachi, Tokyo, Japan) using excitation wavelength λex = 436 nm for monitoring the fluorescence of Chla and λex = 275 nm for monitoring the fluorescence of aromatic amino acids, excitation slit 20 nm and emission slit 10 nm. The samples were kept in the dark for 2 min prior to the measurement. The phosphate buffer used for dilution of the chloroplast suspension was the same as described above. Due to low aqueous solubility, the compounds were added to a chloroplast suspension in DMSO solution. The DMSO concentration in all samples was the same as in the control (10%). The chlorophyll concentration in chloroplast suspension was 10 mg/L.

[5] = test system: chlorophyll a (Chla) in pigment-protein complexes in PS II; assay: Fluorescence of chlorophyll a in spinach chloroplasts; type: biochemical, Spinacia oleracea L.; details: with increasing concentration (c = 0, 56, 220, 431 μM); λex = 436 nm; chlorophyll 10 mg/L
Procedure: as §1

Row | Structure (SMILES) | IC50 [2] | melting point [°C] | also measured
1 | O=C(Nc1ccccc1)c1ccc2ccccc2c1O [Compound 1] | – | – | IC50 [1]: 31.3 µM
2 | O=C(Nc1ccccc1Cl)c1ccc2ccccc2c1O [Compound 2] | – | – | IC50 [1]: 29.4 µM
3 | O=C(Nc1cccc(Cl)c1)c1ccc2ccccc2c1O [Compound 3] | – | – | IC50 [1]: 7.9 µM
4 | O=C(Nc1ccc(Cl)cc1)c1ccc2ccccc2c1O [Compound 4] | – | – | IC50 [1]: 10.8 µM
5 | O=C(Nc1ccccc1Br)c1ccc2ccccc2c1O [Compound 5] | – | – | IC50 [1]: 61.9 µM
6 | O=C(Nc1cccc(Br)c1)c1ccc2ccccc2c1O [Compound 6] | – | – | IC50 [1]: 8.2 µM
7 | O=C(Nc1ccc(Br)cc1)c1ccc2ccccc2c1O [Compound 7] | – | – | IC50 [1]: 9.6 µM
8 | O=C(Nc1cccc(Cl)c1Cl)c1ccc2ccccc2c1O [Compound 8, N-(2,3-Dichlorophenyl)-1-hydroxynaphthalene-2-carboxamide] | 235 µM | – | aqueous solubility [3]: limited aqueous solubility
9 | O=C(Nc1cc(Cl)ccc1Cl)c1ccc2ccccc2c1O [Compound 10, N-(2,5-Dichlorophenyl)-1-hydroxynaphthalene-2-carboxamide] | 59.6 µM | – | –
10 | O=C(Nc1ccc(Cl)c(Cl)c1)c1ccc2ccccc2c1O [Compound 12, N-(3,4-Dichlorophenyl)-1-hydroxynaphthalene-2-carboxamide] | 13.3 µM | – | –
11 | O=C(Nc1cc(Cl)cc(Cl)c1)c1ccc2ccccc2c1O [Compound 13, N-(3,5-Dichlorophenyl)-1-hydroxynaphthalene-2-carboxamide] | 5.2 µM | – | –
12 | O=C(Nc1c(Br)cccc1Br)c1ccc2ccccc2c1O [Compound 19, N-(2,6-Dibromophenyl)-1-hydroxynaphthalene-2-carboxamide] | 78 µM | 212 to 216 | –
13 | O=C(Nc1ccc(Br)cc1Cl)c1ccc2ccccc2c1O [Compound 22, N-(4-Bromo-2-chlorophenyl)-1-hydroxynaphthalene-2-carboxamide] | 171 µM | 186 to 187 | aqueous solubility [3]: limited aqueous solubility
14 | CN(C)C(=O)Nc1ccc(Cl)c(Cl)c1 [DCMU, 3-(3,4-dichlorophenyl)-1,1-dimethylurea, reference compound] | ~1.9 µM and 1.9 µM | – | –

The next lines start with results.

Row | IC50 [2] | melting point [°C] | Structure (SMILES) | also measured
15 | 531 µM | – | O=C(Nc1ccc(Cl)cc1Cl)c1ccc2ccccc2c1O [Compound 9, N-(2,4-Dichlorophenyl)-1-hydroxynaphthalene-2-carboxamide] | aqueous solubility [3]: limited aqueous solubility
16 | 100 µM | – | O=C(Nc1c(Cl)cccc1Cl)c1ccc2ccccc2c1O [Compound 11, N-(2,6-Dichlorophenyl)-1-hydroxynaphthalene-2-carboxamide] | –
17 | 153 µM | – | O=C(Nc1cc(Cl)c(Cl)cc1Cl)c1ccc2ccccc2c1O [Compound 14, 1-Hydroxy-N-(2,4,5-trichlorophenyl)naphthalene-2-carboxamide] | –
18 | 10.6 µM | – | O=C(Nc1c(Cl)cc(Cl)cc1Cl)c1ccc2ccccc2c1O [Compound 15, 1-Hydroxy-N-(2,4,6-trichlorophenyl)naphthalene-2-carboxamide] | –
19 | 8 µM | – | O=C(Nc1cc(Cl)c(Cl)c(Cl)c1)c1ccc2ccccc2c1O [Compound 16, 1-Hydroxy-N-(3,4,5-trichlorophenyl)naphthalene-2-carboxamide] | –
20 | 505 µM | 185 to 188 | O=C(Nc1ccc(Br)cc1Br)c1ccc2ccccc2c1O [Compound 17, N-(2,4-Dibromophenyl)-1-hydroxynaphthalene-2-carboxamide] | aqueous solubility [3]: limited aqueous solubility
21 | 7.6 µM | 198 to 200 | O=C(Nc1cc(Br)ccc1Br)c1ccc2ccccc2c1O [Compound 18, N-(2,5-Dibromophenyl)-1-hydroxynaphthalene-2-carboxamide] | –
22 | 45 µM | 115 to 118 | O=C(Nc1c(Br)cc(Br)cc1Br)c1ccc2ccccc2c1O [Compound 20, 1-Hydroxy-N-(2,4,6-tribromophenyl)naphthalene-2-carboxamide] | –
23 | 278 µM | 182 to 184 | O=C(Nc1ccc(Cl)cc1Br)c1ccc2ccccc2c1O [Compound 21, N-(2-Bromo-4-chlorophenyl)-1-hydroxynaphthalene-2-carboxamide] | aqueous solubility [3]: limited aqueous solubility
24 | 60.3 µM | 178 to 180 | O=C(Nc1cc(Br)ccc1Cl)c1ccc2ccccc2c1O [Compound 23, N-(5-Bromo-2-chlorophenyl)-1-hydroxynaphthalene-2-carboxamide] | AAA fluorescence at 334 nm [4]: quenching of AAA fluorescence at 334 nm was observed; intensity of Chla fluorescence emission band at 686 nm [5]: gradual decrease
25 | 6.7 µM | 203 to 205 | O=C(Nc1ccc(Br)c(Cl)c1)c1ccc2ccccc2c1O [Compound 24, N-(4-Bromo-3-chlorophenyl)-1-hydroxynaphthalene-2-carboxamide] | –
